Assay [1] has as its system RAW264.7. Briefly: Antiinflammatory activity in mouse RAW264.7 cells assessed as inhibition of LPS-induced NO production at 100 uM measured after 24 hrs by Griess method. The assay is classed as functional.
Assay [2] has as its system RAW264.7. The assay can be described thus: Cytotoxicity against mouse RAW264.7 cells […] measured after 24 hrs by MTT assay. The class given is cell-based. The conditions noted are these: RAW264.7, 24 h.
For a further assay, the species on record is Danio rerio. The assay can be described thus: Antiinflammatory activity in transgenic fluorescent Zebrafish assessed as reduction in CuSO4 induced number of macrophage migration at 10 to 50 uM measured after 1 hr by fluorescence microscopic analysis. The class given is functional, organism-based. The conditions noted are these: dose 10-50 µM.

Each structure is given as a SMILES string. Activity calls are given as the source filed them. The rule behind the calls is not given here.

Consider `CCOC(=O)C1=C(C)[C@]2(C)CC[C@@H](C)[C@]2(C)CC1=O`, for which the outcome with RAW264.7 [1] was inactive. Besides, the IC50 with RAW264.7 [2] is above 100 µM.
`C[C@@H]1CC[C@@]2(C)[C@H](C)[C@]3(C[C@@]12C)C(=O)O[C@H]1O[C@H]13`: the result in the assay on RAW264.7 [1] was inactive. For the same compound, the IC50 with RAW264.7 [2] was above 100 µM.
In the same order, the values of `CC1=C(CC(=O)O)C(=O)C[C@@]2(C)[C@H](C)CC[C@@]12C` are “inactive” and above 100 µM.
As to `C[C@@H]1CC[C@@]2(C)[C@H](C)C3=CC(=O)NC3=C[C@@]12C`, the outcome in the assay on RAW264.7 [1] was inactive. The same compound came in with an IC50 in the assay on RAW264.7 [2] above 100 µM.
As for `C[C@@H]1CC[C@@]2(C)[C@H](C)C3=CC(=O)O[C@]3(O)C[C@@]12C`, the Activity in the assay on RAW264.7 [1] came to 96.28%. In the assay on RAW264.7 [2], the IC50 is above 100 µM. Further, the result in the assay filed under Danio rerio was inactive.
Take `CO[C@@]12C[C@@]3(C)[C@H](C)CC[C@@]3(C)[C@H](C)C1=CC(=O)O2`: the outcome with RAW264.7 [1] was inactive. In the assay on RAW264.7 [2], this compound had an IC50 above 100 µM.
`CCO[C@@]12C[C@@]3(C)[C@H](C)CC[C@@]3(C)[C@H](C)C1=CC(=O)O2`: the Activity in the assay with RAW264.7 [1] was 83.54%. In the assay with RAW264.7 [2], the IC50 is above 100 µM. In the assay filed under Danio rerio, the outcome was Active.
On the same counts, the results for `C=C1[C@@]2(CC=O)O[C@H](OC2=O)[C@@]2(C)[C@H](C)CC[C@@]12C` are 83.15%, above 100 µM and “inactive”.
Regarding `CCOC(=O)/C=C1\C(=O)C[C@@]2(C)[C@H](C)CC[C@@]2(C)[C@@H]1C`, the outcome in the assay with RAW264.7 [1] was inactive. This compound also came in with an IC50 with RAW264.7 [2] above 100 µM.
For the compound `C[C@@H]1CC[C@@]2(C)[C@H](C)C3=CC(=O)N[C@@H]3C[C@@]12C`, the result with RAW264.7 [1] was inactive. Moreover, in the assay with RAW264.7 [2], the IC50 is above 100 µM.
As for `C=C1[C@]2(C)CC[C@@H](C)[C@]2(C)C[C@@]2(O)O[C@@H](OCC)[C@H](O)[C@@]12OCC`, the outcome with RAW264.7 [1] was inactive. In addition, in the assay on RAW264.7 [2], the IC50 is above 100 µM.

The values above are taken from ChEMBL document CHEMBL5036360, “Pinguisane Sesquiterpenoids from the Chinese Liverwort Trocholejeunea sandvicensis and Their Anti-Inflammatory Activity” (J Nat Prod, 2022).
